Molecular target: integrin α2β1 (Homo sapiens, UniProt P05556+P17301)
Assay: HT 1080 cell adhesion assay on rat tail collagen I
Format: cell-based
Design: HT1080 (human fibrosarcoma) cells (or human airway smooth muscle cells) were detached and resuspended in serum-free DMEM; endogenous in cells; host or cells: HT1080 human fibrosarcoma cells
Conditions: HT1080 (human fibrosarcoma) cells on rat tail collagen I, absorbance at 595 nm, triplicate; read-out: IC50s from HT 1080 Cell adhesion assay
Procedure: Cell adhesion Assay: Ninety-six-well flat-bottomed tissue culture plates were coated with rat tail collagen I for 1 hour at 37° C. After incubation, wells were blocked with 1% BSA at 37° C. for 1 hour. Control wells were filled with 1% BSA. HT1080 (human fibrosarcoma) cells (or human airway smooth muscle cells) were detached and resuspended in serum-free DMEM. Cells were incubated with anti-integrin alpha2 antibody control or 10-fold dilutions of each compound with a starting concentration of 10 uM for 15 minutes at 4° C. before plating. The plates were centrifuged at 10 g for 5 minutes before incubation for 1 hour at 37° C. in humidified 5% CO2. Nonadherent cells were removed by centrifugation (top side down) at 10 g for 5 minutes. Attached cells were stained with 0.5% crystal violet, and the wells were washed with PBS. The relative number of cells in each well was evaluated after solubilization in 40 μl of 2% Triton X-100 by measuring absorbance at 595 nm in a microplate reader. All determinations were carried out in triplicate.

Sequence of integrin α2β1 (P17301 30-1181): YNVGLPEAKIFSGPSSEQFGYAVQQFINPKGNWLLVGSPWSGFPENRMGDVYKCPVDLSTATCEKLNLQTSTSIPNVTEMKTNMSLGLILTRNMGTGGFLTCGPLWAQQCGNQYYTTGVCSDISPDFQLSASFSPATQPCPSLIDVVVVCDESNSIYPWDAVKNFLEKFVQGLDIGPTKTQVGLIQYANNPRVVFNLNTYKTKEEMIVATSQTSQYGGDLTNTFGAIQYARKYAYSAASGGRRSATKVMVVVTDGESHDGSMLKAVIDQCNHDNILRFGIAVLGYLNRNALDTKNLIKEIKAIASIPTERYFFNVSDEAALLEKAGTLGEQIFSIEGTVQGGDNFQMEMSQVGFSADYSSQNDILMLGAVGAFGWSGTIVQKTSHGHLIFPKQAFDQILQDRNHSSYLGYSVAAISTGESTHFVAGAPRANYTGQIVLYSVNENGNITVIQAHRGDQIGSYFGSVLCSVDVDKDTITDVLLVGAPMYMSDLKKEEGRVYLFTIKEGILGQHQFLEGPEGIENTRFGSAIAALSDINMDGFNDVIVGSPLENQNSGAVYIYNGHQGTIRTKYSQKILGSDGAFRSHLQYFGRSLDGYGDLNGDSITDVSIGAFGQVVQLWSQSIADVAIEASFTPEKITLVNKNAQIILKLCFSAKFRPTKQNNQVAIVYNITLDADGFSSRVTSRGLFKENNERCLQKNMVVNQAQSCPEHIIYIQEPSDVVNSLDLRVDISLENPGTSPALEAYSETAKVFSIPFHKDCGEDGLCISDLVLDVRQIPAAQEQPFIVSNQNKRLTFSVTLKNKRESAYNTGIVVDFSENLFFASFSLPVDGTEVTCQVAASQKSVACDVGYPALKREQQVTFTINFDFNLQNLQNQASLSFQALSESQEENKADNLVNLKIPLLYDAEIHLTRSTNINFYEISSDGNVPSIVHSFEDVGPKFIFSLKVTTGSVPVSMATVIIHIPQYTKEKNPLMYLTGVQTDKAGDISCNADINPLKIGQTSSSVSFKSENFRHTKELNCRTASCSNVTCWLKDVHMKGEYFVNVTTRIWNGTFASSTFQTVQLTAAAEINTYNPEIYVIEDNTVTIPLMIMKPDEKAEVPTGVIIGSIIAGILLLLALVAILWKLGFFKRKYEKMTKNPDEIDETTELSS
Sequence of integrin α2β1 (P05556 21-798): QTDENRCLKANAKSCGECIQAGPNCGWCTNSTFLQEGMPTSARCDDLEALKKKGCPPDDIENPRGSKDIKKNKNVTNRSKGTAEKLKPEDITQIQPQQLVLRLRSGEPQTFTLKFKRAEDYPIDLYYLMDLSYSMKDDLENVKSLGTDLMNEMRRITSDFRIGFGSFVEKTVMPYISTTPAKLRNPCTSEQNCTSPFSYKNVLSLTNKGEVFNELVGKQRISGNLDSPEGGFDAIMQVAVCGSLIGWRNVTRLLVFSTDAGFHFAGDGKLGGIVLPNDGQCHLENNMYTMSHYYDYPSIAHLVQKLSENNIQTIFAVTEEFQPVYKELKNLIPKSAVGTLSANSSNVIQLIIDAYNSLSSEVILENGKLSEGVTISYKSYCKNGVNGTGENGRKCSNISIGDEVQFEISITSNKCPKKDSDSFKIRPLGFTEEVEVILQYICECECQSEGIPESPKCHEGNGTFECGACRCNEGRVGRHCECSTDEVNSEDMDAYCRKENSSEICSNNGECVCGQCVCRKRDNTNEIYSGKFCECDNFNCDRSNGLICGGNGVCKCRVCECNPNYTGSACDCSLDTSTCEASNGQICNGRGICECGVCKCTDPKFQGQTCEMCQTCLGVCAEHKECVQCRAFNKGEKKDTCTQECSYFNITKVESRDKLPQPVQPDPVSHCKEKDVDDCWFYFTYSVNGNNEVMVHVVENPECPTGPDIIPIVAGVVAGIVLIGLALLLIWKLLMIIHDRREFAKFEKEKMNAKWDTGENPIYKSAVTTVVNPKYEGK

SMILES	IC50 [µM]
CCN(CC)C(=O)NC[C@H](NC(=O)c1c(Cl)cccc1Cl)C(=O)O [A2-71, (S)-2-(2,6-dichlorobenzamido)-3-(3,3-diethylureido)propanoic acid]	> 100
O=C(CC1CCCCC1)N[C@@H](CNC(=O)NCc1ccccc1)C(=O)O [A2-64, (S)-3-(3-benzylureido)-2-(2-cyclohexylacetamido)propanoic acid]	> 100
CC(C)(C)CNC(=O)NC[C@H](NC(=O)c1c(Cl)cccc1Cl)C(=O)O [KZ-1-40, (S)-2-(2,6-dichlorobenzamido)-3-(3-neopentylureido)propanoic acid]	> 100
Nc1ccc(CNC(=O)NC[C@H](NC(=O)c2c(Cl)cccc2Cl)C(=O)O)cc1 [KZ-1-37, (S)-3-(3-(4-aminobenzyl)ureido)-2-(2,6-dichlorobenzamido)propanoic acid]	> 100
Cc1ccc(CNC(=O)NC[C@H](NC(=O)c2c(Cl)cccc2Cl)C(=O)O)cc1 [KZ-1-9, (S)-2-(2,6-dichlorobenzamido)-3-(3-(4-methylbenzyl)ureido)propanoic acid]	> 100
O=C(NCCC1C2CC3CC(C2)CC1C3)NC[C@H](NC(=O)c1c(Cl)cccc1Cl)C(=O)O (stereo partly shown) [A2-134]	10 to 100
CC12CC3CC(C1)CC(NC(=O)NC[C@H](NC(=O)c1c(Cl)cccc1Cl)C(=O)O)(C3)C2 [A2-157, (S)-2-(2,6-dichlorobenzamido)-3-(3-(3-methyladamantan-1-yl)ureido)propanoic acid]	10 to 100
CC(NC(=O)NC[C@H](NC(=O)c1c(Cl)cccc1Cl)C(=O)O)C12CC3CC(CC(O)(C3)C1)C2 (stereo partly drawn) [A2-152, (2S)-2-(2,6-dichlorobenzamido)-3-(3-(1-(3-hydroxyadamantan-1-yl)ethyl)ureido)propanoic acid]	10 to 100
O=C(NC[C@H](NC(=O)c1c(Cl)cccc1Cl)C(=O)O)NC(c1ccccc1)c1ccccc1 [A2-127, (S)-3-(3-benzhydrylureido)-2-(2,6-dichlorobenzamido)propanoic acid]	10 to 100
CCC12CC3CC(C1)CC(NC(=O)NC[C@H](NC(=O)c1c(Cl)cccc1Cl)C(=O)O)(C3)C2 [A2-129, (S)-2-(2,6-dichlorobenzamido)-3-(3-(3-ethyladamantan-1-yl)ureido)propanoic acid]	10 to 100
CC(C)(C)NC(=O)NC[C@H](NC(=O)c1c(Cl)cccc1Cl)C(=O)O	> 100
O=C(NCc1cccs1)NC[C@H](NC(=O)c1c(Cl)cccc1Cl)C(=O)O [KZ-1-34, (S)-2-(2,6-dichlorobenzamido)-3-(3-(thiophen-2-ylmethyl)ureido)propanoic acid]	10 to 100
CC(C)(C)OC(=O)NC[C@H](NC(=O)c1c(Cl)cccc1Cl)C(=O)O [A2-39, (S)-3-((tert-butoxycarbonyl)amino)-2-(2,6-dichlorobenzamido)propanoic acid]	10 to 100
CC(NC(=O)NCC(NC(=O)c1c(Cl)cccc1Cl)C(=O)O)C1CC2CCC1C2 [A2-176, (2S)-3-(3-(1-((1 S,4R)-bicyclo[2.2.1]heptan-2-yl)ethyl)ureido)-2-(2,6-dichlorobenzamido)propanoic acid]	10 to 100
CC1(C)C2CCC(CNC(=O)NC[C@H](NC(=O)c3c(Cl)cccc3Cl)C(=O)O)C1C2 (stereo partly shown) [A2-173]	10 to 100
COc1cccc(OC)c1C(=O)N[C@@H](CNC(=O)NCc1ccccc1)C(=O)O [A2-28, (S)-3-(3-benzylureido)-2-(2,6-dimethoxybenzamido)propanoic acid]	> 100
O=C(NC[C@H](NC(=O)c1c(Cl)cccc1Cl)C(=O)O)OCc1ccccc1 [A2-72, (S)-3-(((benzyloxy)carbonyl)amino)-2-(2,6-dichlorobenzamido)propanoic acid]	> 100
C[C@@H](NC(=O)NC[C@H](NC(=O)c1c(Cl)cccc1Cl)C(=O)O)c1ccccc1 [KZ-1-12, (S)-2-(2,6-dichlorobenzamido)-3-(3-((R)-1-phenylethyl)ureido)propanoic acid]	10 to 100
CC12CC3CC(C)(C1)CC(NC(=O)NC[C@H](NC(=O)c1c(Cl)cccc1Cl)C(=O)O)(C3)C2 [A2-128, (S)-2-(2,6-dichlorobenzamido)-3-(3-(3,5-dimethyladamantan-1-yl)ureido)propanoic acid]	10 to 100
CC(C)CC(=O)N[C@@H](CNC(=O)NCc1ccccc1)C(=O)O [A2-37, (S)-3-(3-benzylureido)-2-(3-methylbutanamido)propanoic acid]	> 100
O=C(NCc1c(F)cccc1F)NC[C@H](NC(=O)c1c(Cl)cccc1Cl)C(=O)O [KZ-1-33, (S)-2-(2,6-dichlorobenzamido)-3-(3-(2,6-difluorobenzyl)ureido)propanoic acid]	> 100
C[C@@H]1[C@H]2C[C@@H](C[C@H]1NC(=O)NC[C@H](NC(=O)c1c(Cl)cccc1Cl)C(=O)O)C2(C)C [A2-170, (S)-2-(2,6-dichlorobenzamido)-3-(3-((1R,2R,3R,5S)-2,6,6-trimethylbicyclo[3.1.1]heptan-3-yl)ureido)propanoic acid]	10 to 100
O=C(NCCC12CC3CC(CC(C3)C1)C2)NC[C@H](NC(=O)c1c(Cl)cccc1Cl)C(=O)O [A2-154, (S)-3-(3-(2-(adamantan-1-yl)ethyl)ureido)-2-(2,6-dichlorobenzamido)propanoic acid]	10 to 100
O=C(NC[C@H](NC(=O)c1c(Cl)cccc1Cl)C(=O)O)NC1CCC2(CCCCC2)CC1 [A2-179, (S)-2-(2,6-dichlorobenzamido)-3-(3-(spiro[5.5]undecan-3-yl)ureido)propanoic acid]	10 to 100
O=C(NCc1ccccc1)NC[C@H](NC(=O)C1CCCCC1)C(=O)O [A2-63, (S)-3-(3-benzylureido)-2-(cyclohexanecarboxamido)propanoic acid]	> 100
O=C(NCC1CCCCC1)NC[C@H](NC(=O)c1c(Cl)cccc1Cl)C(=O)O [KZ-1-22, (S)-3-(3-(cyclohexylmethyl)ureido)-2-(2,6-dichlorobenzamido)propanoic acid]	> 100
O=C(NC[C@H](NC(=O)c1c(Cl)cccc1Cl)C(=O)O)NC12CC3CC(CC1C3)C2 [A2-145, (2S)-2-(2,6-dichlorobenzamido)-3-(3-(hexahydro-2,5-methanopentalen-3a(1H)-yl)ureido)propanoic acid]	10 to 100
COc1ccc(CNC(=O)NC[C@H](NC(=O)c2c(Cl)cccc2Cl)C(=O)O)cc1 [KZ-1-20, (S)-2-(2,6-dichlorobenzamido)-3-(3-(4-methoxybenzyl)ureido)propanoic acid]	> 100

Results, then the molecule that gave them:

IC50 [µM]	SMILES
10 to 100	O=C(NC[C@H](NC(=O)c1c(Cl)cccc1Cl)C(=O)O)NCC12CC3CC(CC(Cl)(C3)C1)C2 [A2-156, (S)-3-(3-((3-chloroadamantan-1-yl)methyl)ureido)-2-(2,6-dichlorobenzamido)propanoic acid]
10 to 100	Cc1cc(OC(C)C)cc(C)c1C(=O)N[C@@H](CNC(=O)NCc1ccccc1)C(=O)O [A2-61, (S)-3-(3-benzylureido)-2-(4-isopropoxy-2,6-dimethylbenzamido)propanoic acid]
< 10	O=C(NC[C@H](NC(=O)c1c(Cl)cccc1Cl)C(=O)O)N[C@H]1CCCc2ccccc21 [A2-125, (S)-2-(2,6-dichlorobenzamido)-3-(3-((S)-1,2,3,4-tetrahydronaphthalen-1-yl)ureido)propanoic acid]
10 to 100	COc1cc(C)c(C(=O)N[C@@H](CNC(=O)NCc2ccccc2)C(=O)O)c(C)c1 [A2-60, (S)-3-(3-benzylureido)-2-(4-methoxy-2,6-dimethylbenzamido)propanoic acid]
< 10	CC1(C)C2CCC1(C)C(NC(=O)NC[C@H](NC(=O)c1c(Cl)cccc1Cl)C(=O)O)C2 (stereo partly drawn) [A2-171, (2S)-2-(2,6-dichlorobenzamido)-3-(3-(1,7,7-trimethylbicyclo[2.2.1]heptan-2-yl)ureido)propanoic acid]
10 to 100	COc1ccccc1CNC(=O)NC[C@H](NC(=O)c1c(Cl)cccc1Cl)C(=O)O [KZ-1-14, (S)-2-(2,6-dichlorobenzamido)-3-(3-(2-methoxybenzyl)ureido)propanoic acid]
10 to 100	CC(NC(=O)NC[C@H](NC(=O)c1c(Cl)cccc1Cl)C(=O)O)C12CC3CC(CC(C3)C1)C2 (stereo partly drawn) [A2-132, (2S)-3-(3-(1-(adamantan-1-yl)ethyl)ureido)-2-(2,6-dichlorobenzamido)propanoic acid]
10 to 100	O=C(NCc1ccccc1)NC[C@H](NC(=O)c1c(C(F)(F)F)cccc1C(F)(F)F)C(=O)O [A2-27, (S)-3-(3-benzylureido)-2-(2,6-bis(trifluoromethyl)benzamido)propanoic acid]
< 10	O=C(NCC1CCc2ccccc21)NC[C@H](NC(=O)c1c(Cl)cccc1Cl)C(=O)O (stereo partly shown) [A2-123]
< 10	O=C(NC[C@H](NC(=O)c1c(Cl)cccc1Cl)C(=O)O)NC1C2CC3CC(C2)CC1C3 (stereo partly drawn) [A2-130, (S)-3-(3-(adamantan-2-yl)ureido)-2-(2,6-dichlorobenzamido)propanoic acid]
< 10	O=C(NC[C@H](NC(=O)c1c(Cl)cccc1Cl)C(=O)O)N[C@@H]1CCCc2ccccc21 [A2-124, (2S)-2-(2,6-dichlorobenzamido)-3-(3-(1,2,3,4-tetrahydronaphthalen-1-yl)ureido)propanoic acid]
< 10	O=C(NC[C@H](NC(=O)c1c(Cl)cccc1Cl)C(=O)O)NC1CCc2ccccc2C1 (stereo partly drawn) [A2-126, (2S)-2-(2,6-dichlorobenzamido)-3-(3-(1,2,3,4-tetrahydronaphthalen-2-yl)ureido)propanoic acid]

Source: patent US11597727B2 (THE REGENTS OF THE UNIVERSITY OF CALIFORNIA, priority 2018, dated 2023)
